Results published in the METLIN SMRT retention time set (Domingo-Almenara et al. 2019).

Experiment: gradient 5% acetonitrile 3 min, to 50% in 2 min, to 85% in 15 min, held 3 min, 100 µL/min
Details: column: Zorbax Extend-C18 2.1 x 50 mm; eluents: water / acetonitrile, 0.1% formic acid
Method in brief: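 Values are retention times taken from adduct peaks that software picked and an analyst inspected. The pure standards were run as mixtures of ~100 molecules on HPLC linked to a quadrupole time-of-flight mass spectrometer, in positive and negative ionization mode. A Zorbax Extend-C18 column (2.1 × 50 mm, 1.8 μm) was used at 100 μL/min with water and acetonitrile, each including 0.1% formic acid.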

Structure (SMILES) | RP-LC retention time
CC1CCN(S(=O)(=O)c2cccc(-c3nnc(-c4ccc(Cl)cc4)o3)c2)CC1 | 1250 s
CCOC(=O)c1ccc(NC2=NS(=O)(=O)C(c3ccc(F)cc3)=C2C)cc1 | 948 s
Cc1ccn2c(NC(=O)c3ccc(C)c(C)c3)c(-c3ccccc3)nc2c1 | 709 s
Cc1nc(-c2cc(S(=O)(=O)Nc3cccc(Cl)c3C)c(C)s2)cs1 | 1120 s
COc1ccc(C)cc1NC(=O)C1CCN(c2nc(C3CCC3)nc3csc(C)c23)CC1 | 847 s
O=C(Cc1csc2nc(-c3ccccc3)cn12)Nc1ccc2c(c1)OCCO2 | 744 s
Clc1ccc(-c2nc(N3CCCCC3)c3ccccc3n2)cc1 | 818 s
CCOC(=O)c1c(S(=O)(=O)N2CCC(C(=O)Nc3ccccc3F)CC2)c(C)n(C)c1C | 851 s
COCCN1C(=O)c2ccccc2C(C(=O)NC2CCCC2)C1c1cccs1 (centres undefined) | 843 s
CCN1CCN(c2ncc3c(n2)CCN(Cc2ccc(OC)c(OC)c2OC)C3)CC1 | 547 s
Cc1nc(-c2csc(S(=O)(=O)N3CCC(C(=O)NC4CCCC4)CC3)c2)no1 | 826 s
CCOC(=O)N1CCC2(CC1)OC(=O)C(C)=C2C(=O)Nc1cc(OC)cc(OC)c1 | 864 s
COc1ccc(C(=O)NCCC(O)C(C)(C)C)cc1 (centres undefined) | 688 s
CCOC(=O)c1cccc(Nc2c(-c3ccc(OC)c(OC)c3)nc3cnccn23)c1 | 811 s
CCOC(=O)c1sc2nc(C)cc(C)c2c1NC(=O)CCS(=O)(=O)c1ccccc1 | 759 s
CCc1cc(C(=O)NCc2ccc(C)o2)nc2cc(-c3ccccn3)nn12 | 778 s
COC(=O)c1ccc(CN2CCC(c3nnc(C(F)(F)F)o3)CC2)o1 | 560 s
CCOc1ccccc1NC(=O)C1CCN(S(=O)(=O)c2ccc3c(c2)sc(=O)n3CC)CC1 | 922 s
O=C(NCc1csc(-c2ccccc2)n1)C1CCN(S(=O)(=O)c2ccc(Cl)cc2)CC1 | 976 s
Cc1ccc2c(Nc3ccc4c(c3)OCCO4)c(C(=O)N3CCCCC3C)cnc2n1 (centres undefined) | 623 s
COc1ccc(C(=O)N2CCC3(CC2)NCc2ccccc2-n2ccnc23)cc1OC | 594 s

Structure (SMILES) | RP-LC retention time
CC(C)(C)C1=NN=C2c3ccccc3C(=O)C21 (centres undefined) | 852 s
Cc1cccc(NC(=O)N2CCCC(C)(C(=O)NCc3ccc(F)cc3)C2)c1C (centres undefined) | 929 s
COc1ccc(S(=O)(=O)N2CCCC(C(=O)Nc3ccccc3Br)C2)cc1C (centres undefined) | 1040 s
O=C(Nc1cccc(Br)c1)N1CCC(n2cnc3cccnc32)CC1 | 660 s
O=C1N=C(N2CCOCC2)S/C1=C/c1ccc(-c2ccccc2Br)o1 | 872 s
Cc1ccc(C)c(Cn2nc3ccc(S(=O)(=O)N4CCc5ccccc5C4)cn3c2=O)c1 | 1100 s
Cc1ccn2cc(C(=O)NCCN(C)C3CCCCC3)nc2c1 | 572 s
CC(C)OCCCNC(=O)c1ccc2nc(Cc3ccccc3)oc2c1 | 884 s
Cc1cc(C(=O)N2CCC(N3C(=O)C4(CCCC4)C3c3scnc3C)CC2)n(C)n1 (centres undefined) | 691 s
O=C(CSCC(=O)N1CCOCC1)Nc1nc(-c2ccc3c(c2)OCO3)cs1 | 681 s
COc1ccc(NC(=O)C2CCN(c3cc(N4CCSCC4)ncn3)CC2)cc1OC | 627 s
O=C(NCCc1ccccc1)Nc1ccccc1NC(=O)c1ccsc1 | 796 s
CCOC(=O)CNC(=O)C1CC(=O)N(CCc2c[nH]c3ccc(F)cc23)C1 (centres undefined) | 962 s
O=C(Cc1ccsc1)Nc1ccc(N2CCN(c3ccccc3)C2=O)nc1 | 811 s
O=C(c1ccc2c(c1)OCO2)N1CCC2(CC1)NC(=O)N(Cc1ccc(Cl)cc1)C2=O | 811 s
COc1ccc2c(c1)C1(CCN(C(=O)c3ccc(F)c(F)c3)C1)C(=O)N2C (centres undefined) | 634 s
CN(C)C(=O)c1n[nH]c2c1CN(C(=O)c1cc(F)cc(F)c1)CC2 | 635 s
COc1ccc2c(c1)C13CCN(C)C(C2)C1CCC1(C3)OCCO1 (centres undefined) | 645 s
CC(=O)c1ccc(NC(=O)C2CC(=O)N(c3ccc4oc(C)nc4c3)C2)cc1 (centres undefined) | 685 s
C=Cc1ccc(Cn2nc3ccc(S(=O)(=O)N4CCC(C)CC4)cn3c2=O)cc1 | 1060 s
Cc1ccccc1-c1nc(-c2ccc(S(=O)(=O)N3CCCC3)cc2)no1 | 1240 s

Now from value to molecule:

RP-LC retention time | Structure (SMILES)
686 s | CCOC(=O)c1c(C)[nH]c(CCC(=O)NCC2CCCO2)c1C (centres undefined)
1210 s | CCOc1cccc(-c2noc(Cn3c(=O)n(Cc4ccc(F)cc4)c(=O)c4sccc43)n2)c1
814 s | Cc1cccc2c(=O)n(C)c(CCC(=O)NCc3cc(F)ccc3F)nc12
1000 s | O=C([C@@H]1C[C@H](F)CN1S(=O)(=O)Cc1cccc(Cl)c1)N1CCc2ccccc2C1
579 s | CCN1CCN(CCNC(=O)CCCn2c3ccccc3c3cnn(C)c(=O)c32)CC1
691 s | Cc1ccc(CN2C[C@@H]3C(=O)N(Cc4ccc5c(c4)OCO5)C(=O)[C@@H]3C2)cc1C
727 s | O=C(Cn1c(=O)c2cc(C3CC3)nn2c2ncccc21)NCc1ccccc1
939 s | COc1ccccc1-c1noc(C2CCCN2C(=O)COc2ccccc2C)n1 (centres undefined)
649 s | Cc1cnc(C(=O)N2CCCCCC2c2nnc(C)o2)cn1 (centres undefined)
887 s | COc1ccc(Cl)cc1NC(=O)Cn1cccc(-c2nc(-c3ccc(OC)c(OC)c3)no2)c1=O
710 s | O=C(CN1C(=O)CCC1=O)N(Cc1ccsc1)Cc1ccco1
883 s | O=S(=O)(Nc1ccccc1)c1ccc(-c2nnc(C3CCC3)o2)o1
811 s | O=c1n(Cc2cccc(Br)c2)nc2c(S(=O)(=O)N3CCOCC3)cccn12
596 s | COc1cc(-c2noc(Cn3ccnc3C)n2)cc(OC)c1OC
805 s | O=C(C1CC1)N1CCc2sc(S(=O)(=O)NCc3cccc(F)c3)cc2C1
719 s | CCC(C)Nc1nc(-c2ccc(C)cc2)nnc1C (centres undefined)
609 s | CCn1ccc(C(=O)N2CCN(C(=O)N3C[C@H]4C[C@H](C3)[C@H]3CCCC(=O)N3C4)CC2)n1
584 s | CCOC(=O)c1nc(NCCN2CCOCC2)c2ccccc2n1
680 s | CC(=O)Nc1nsc(N2CCC(C(=O)N3CCN(c4ccc(F)cc4)CC3)CC2)n1
612 s | Cc1cc(C)c2c(N3CCCC3)nc(C(=O)Nc3ccc(N4CCOCC4)cc3)nc2n1
765 s | O=C(NCc1ccc(Br)cc1)c1ccc(-c2cncnc2)nc1
897 s | O=C(Cn1c(=O)oc2ccccc21)N1CCCC(COCc2ccccc2)C1 (centres undefined)
700 s | Cn1cccc1C(=O)N1C[C@@H]2C[C@H]1C[C@@H]2NC(=O)c1cccs1
641 s | CCn1nccc1C(=O)Nc1nnc(-c2ccsc2)o1

RP-LC retention time | Structure (SMILES)
736 s | O=C(O)c1ccc(Nc2c(-c3cccc(Br)c3)nc3cnccn23)cc1
629 s | COc1ccc(NC(=O)N2CCC(CN3CCCC(C)C3)CC2)cc1Cl (centres undefined)
877 s | Cn1nccc1-c1csc(S(=O)(=O)NC2CCCCC2)c1
937 s | COc1ccc(-c2noc(C3CCCN3C(=O)c3cccc(OC)c3)n2)cc1 (centres undefined)
831 s | CC(NC(=O)C1C(=O)NC2(C)CC1c1ccccc1O2)c1ccccc1 (centres undefined)
780 s | CCOCCCNC(=O)c1cc2n(n1)CCCN(Cc1cccc(C)c1)C2=O
666 s | Cc1ccc2c(C(=O)NCc3cc(F)cc(F)c3)cc(NC(=O)C(C)C)cc2n1
636 s | O=C(Nc1ccc(Nc2ccncc2)cc1)c1ccc(Nc2ccnc3ccc([N+](=O)[O-])cc23)cc1
956 s | O=C(NCC1OCCc2ccccc21)C(=O)Nc1ccccc1 (centres undefined)
684 s | Cc1oc(C2CCN(C(=O)CCc3cc(Cl)no3)CC2)nc1C(=O)N1CCOCC1
732 s | COC(=O)c1cnc2nc(C)ccc2c1Nc1ccc(Br)cc1C
1020 s | Cc1nnsc1C(=O)Nc1nnc(SCc2ccc(Cl)c(Cl)c2)s1
731 s | O=C(NCCCN1CCCC1=O)c1ccc2nc(Cc3ccccc3)oc2c1
939 s | CCc1noc(-c2ccc(SCC(=O)N3CCCCCC3)nc2)n1
869 s | O=C(Cn1nc2c3sc(N4CCCCC4)nc3ncn2c1=O)Nc1ccc(F)c(Cl)c1
931 s | CCc1noc(-c2ccnc(-n3ncc(C(=O)NCC(C)C)c3C)c2)n1
789 s | COc1ccc(N2C=C(C(=O)N3CCOCC3)S(=O)(=O)c3ccccc32)cc1Cl
707 s | CS(=O)(=O)c1ccc(-c2cccc(NC(=O)Cc3cccs3)c2)nn1
653 s | O=C(c1ccc2nccnc2c1)N1CCC(c2nnc(C(F)(F)F)o2)CC1
1160 s | CCOc1ccccc1-c1nc(Cc2nc(-c3ccc(OC)cc3)oc2C)no1
667 s | Cn1cnc(C(=O)N2CC(F)(F)C[C@H]2c2nc(C3CC3)no2)c1
649 s | O=C(Nc1ccc(Cl)cc1F)NC1CCN(c2cc(N3CCOCC3)cnn2)C1 (centres undefined)
598 s | COCCN1C(=O)[C@H]2CN(Cc3cc(OC)cc(OC)c3)C[C@H]2C1=O
